From paper PMC12203697, “Bioactive constituents from the edible seaweed Halymenia hawaiiana (Rhodophyta)” (Pharmaceutical Biology, 2025)
In brackets after ≈: the same amount, converted by molar mass. Where a name gives a salt, the structure may show the parent alone. Read-outs that look alike come from different tables or passages of the source.

Key:
[1] = Ferric-reducing antioxidant power (FRAP) assay
Protocol: The FRAP assay was used to evaluate antioxidant activity based on the ability of the sample to reduce Fe^3+-TPTZ (2,4,6-tris(2-pyridyl)-S-triazine) to Fe^2+-TPTZ (Benzie and Strain [1996]). This reduction results in a color change from colorless to blue. The absorbance was measured at 593 nm using a Microplate Reader (BioTek ELx800 Instruments Inc. Winooski, Vermont, USA) with the Gen 5 software for FRAP value calculations. A ferrous sulfate heptahydrate (FeSO4 · 7H2O) (Cat. No. 215422, Sigma-Aldrich, USA) standard curve, ranging from 1000 µM to 50 µM, was prepared for the assay. The FRAP reagent consists of 300 mM sodium acetate buffer (pH 3.6) (Cat. No. 90358, Sigma-Aldrich, USA), 10 mM TPTZ solution (Cat. No. T1253, Sigma-Aldrich, USA), and 20 mM ferric (III) chloride hexahydrate (FeCl3 · 6H2O) (Cat. No. 236489, Sigma-Aldrich, USA) in a 10:1:1 ratio, respectively, and heated to 37 °C for ten minutes before use. A blank was measured at 593 nm with 150 µL FRAP reagent added to each well of a 96-well microtiter plate. Samples (20 µL of each sample) (1, 0.5, 0.25 mg/mL) and ascorbic acid (Sigma-Aldrich, Cat. No. A4403) positive control (1 mg/mL) were added in triplicates. Reducing capacity was expressed by FRAP values in an µM FeSO4/µg sample unit.

MRSA POB2 = assay: Antibacterial MIC, broth microdilution with resazurin; type: cell-based, Staphylococcus aureus
Text: (§1) Methicillin-resistant Staphylococcus aureus (MRSA), methicillin-susceptible S. aureus (MSSA), and Gram-negative clinical isolates of bacteria [Escherichia coli (9637) and Serratia marcescens ATCC 13880] were used for this study. […] MSSA HBP10, MSSA LUU7, MSSA R113, S. aureus ONE9, and MSSA POB2 were isolated in Hawaiʻi (Gerken et al. [2021]). Mueller Hinton Broth (MHB, GTIN:00382902979630, Becton, Dickinson and Company, Franklin Lakes, NJ, USA) and Mueller Hinton Agar (MHA, GTIN:00382902252504, Becton, Dickinson and Company, Franklin Lakes, NJ, USA,) were used for bacterial inoculation. MRSA was a pathogen strain causing hospital-acquired infections in 1982. This strain easily acquires resistance to antibiotics, such as vancomycin. MSSA strains isolated from the Island of Hawaiʻi included: Honolʻii Beach Park (HBP10) carry the genes erm(C), aph(3′)-III, and mecA, which provide resistance to macrolide, aminoglycoside, and beta-lactam antibiotics, respectively; Wailuku River (LUU7) which contains the blaZ gene (beta-lactam resistance) (Gerken et al. [2021]). Richardson’s Beach Park (R113) and Onekahakaha (ONE9) which is known for its virulence factors (hlgA, hlgB, hlgC, lukD, and lukE).
(§2) The minimum inhibitory concentrations (MICs) were determined using a two-fold serial dilution method with MHB following the recommendations of the Clinical and Laboratory Standards Institute (CLSI [2012]; Elshikh et al. [2016]). In brief, serial two-fold dilutions of the samples in DMSO were mixed with MHB in a 96-well microplate. Then, 50 µL of bacteria suspension was added to each well, resulting in a final concentration of 1 × 10^4 colony-forming units/well. The plates were incubated at 35–37 °C for 18–24 hr. After incubation, 10 µL of 0.18% resazurin (Cat. No. R7017, Sigma-Aldrich, USA) was added to each well (Elshikh et al. [2016]). The MIC was assessed within 2–3 hr after the addition of resazurin. All antimicrobial assays were performed in triplicate, using vancomycin (Cat. No. SBR00001, Sigma-Aldrich, USA) and gentamicin (Cat. No. G1397, Sigma-Aldrich, USA) as standard controls.

MRSA HBP10 = assay: as above; type: cell-based, Staphylococcus aureus
Text: as §1, §2

S. aureus NEWMAN = assay: as above; type: cell-based, Staphylococcus aureus; conditions: Staphylococcus aureus
Text: as §1, §2

[2] = tested on: A549 human lung carcinoma epithelial cells; assay: SRB cytotoxicity assay, A549 cells; conditions: SRB assay; for cytotoxic response against A549 cells (in words): 72 h, highest concentration tested 100 µg/ml
Protocol: After incubation, cells were fixed with trichloroacetic acid (Cat. No. T4885, Sigma-Aldrich, USA), stained with SRB (Cat. No. S9012, Sigma-Aldrich, USA), and the absorbance was measured at 515 nm. Percent cell death was calculated using the following equation: % Cell death=(ODc−OD0)‐(ODs−OD0)/(ODc−OD0)×100
OD0 = Optical density of cells before treatment (baseline reading).
ODC = Optical density of untreated control cells after 72 h.
ODS = Optical density of cells treated with the test sample after 72 h.
Non-linear regression analysis was performed using GraphPad Prism to calculate the IC50 value. This value reflects the concentration needed to inhibit cell growth by 50%.
All data are presented as mean ± standard error of the mean (SEM) and were collected from three separate experiments. Statistical analyses were conducted using Student’s t-test or ANOVA, followed by Tukey’s multiple comparisons test. Significance is indicated by *p < 0.05, **p < 0.01, and ***p < 0.001.

S. marcescent = assay: Antibacterial MIC, broth microdilution with resazurin; type: cell-based, Serratia marcescens; conditions: Gram-negative
Text: as §1, §2

S. aureus ONE9 = assay: as above; type: cell-based; conditions: Staphylococcus aureus
Text: as §1, §2

MSSA R113 = assay: as above; type: cell-based; conditions: Staphylococcus aureus
Text: as §1, §2

S. aureus 8325-4 = assay: as above; type: cell-based; conditions: Staphylococcus aureus, 83254
Text: as §1, §2

E. coli = assay: as above; type: cell-based; conditions: Escherichia coli, Gram-negative
Text: as §1, §2

MSSA LUU7 = assay: as above; type: cell-based; conditions: Staphylococcus aureus
Text: as §1, §2

MRSA USA300 = assay: as above; type: cell-based; conditions: Staphylococcus aureus
Text: as §1, §2

[3] = tested on: LPS-induced nitric oxide (NO) production in RAW 264.7 cells; assay: Inhibition of NO generation in LPS-induced RAW 264.7 cells (Griess); type: cell-based, murine; conditions: RAW 264.7 cells
Protocol: The nitrite concentration in the culture medium was measured to indicate nitric oxide (NO) production as previously described (Min et al. [2009]). The murine macrophage RAW 264.7 cell line was obtained from ATCC, Manassas, VA, USA, and maintained in Dulbecco’s modified Eagle’s medium supplemented with 10% heat-inactivated FBS (Cat. No. A5670801, Gibco BRL Co, Grand Island, NY, USA), penicillin G (100 units/mL) (Cat. No. P7794, Sigma-Aldrich, USA), streptomycin (100 µg/mL) (Cat. No. S9137, Sigma-Aldrich, USA), and L-glutamine (2 mM) (Cat. No. 25030081, Gibco BRL Co, Grand Island, NY, USA). In brief, RAW 264.7 cells were seeded at a density of 4 × 10^4 cells/well in phenol red-free media (Cat. No. 11835030, Gibco, USA) in a 96-well plate, and incubated in a humidified incubator with 5% CO2 at 37 °C for 24 hr. […] The concentration of nitric oxide production was assessed using the Griess reagent, which consists of a 1:1 (v/v) mixture of 1% sulfanilamide (Cat No. A13001, Alfa Aesar, Massachusetts, USA) in H3PO4 and N-(1-naphthyl)ethylenediamine dihydrochloride (Cat. No. 102397, MP Biomedicals, USA). Absorbance was recorded with a microplate reader (SynergyMx, BioTeK, Winooski, VT, USA) at 540 nm. A standard curve was created using sodium nitrite (1–100 μM) (Cat. No. 44227, Alfa Aesar, Massachusetts, USA). A sulforhodamine B (SRB) assay was employed to assess the cellular viability of the samples with RAW 264.7 cells under a similar experimental setup. The final % inhibition of NO production was adjusted based on cell viability.

S. aureus CART817 = assay: Antibacterial MIC, broth microdilution with resazurin; type: cell-based; conditions: Staphylococcus aureus
Protocol: as §2

[4] = Serratia marcescens, read-out: MIC

O=C1O[C@H]([C@@H](O)CO)C(O)=C1O [Ascorbic acid, ascorbic acid, reference compound]
FRAP ([1]; FeSO4 standard curve): 2847.40 µM
FRAP ([1]; µM FeSO4/µg sample): 35.59 ± 0.09 µM/µg
FRAP ([1]; µM FeSO4/µg sample, listed as ascorbic acid): 35.59 µM/µg

Nc1ncnc2c1ncn2[C@H]1C[C@H](O)[C@@H](CO)O1 [Compound 2, deoxyadenosine]
MIC (MRSA POB2; Staphylococcus aureus, MRSA POB2, Gram-positive, read-out: MIC): 128 µg/mL (≈ 509 µM)
MIC (MRSA HBP10; Staphylococcus aureus, MRSA HBP10, Gram-positive, read-out: MIC): 128 µg/mL (≈ 509 µM)
MIC (S. aureus NEWMAN; S. aureus NEWMAN, Gram-positive, read-out: MIC): 128 µg/mL (≈ 509 µM)
cytotoxic response against A549 cells (in words) [2]: no cytotoxic response
MIC (S. marcescent; [4]): 64 µg/mL (≈ 255 µM)
MIC (S. aureus ONE9; S. aureus ONE9, Gram-positive, read-out: MIC): 128 µg/mL (≈ 509 µM)
MIC (MSSA R113; MSSA R113, Gram-positive, read-out: MIC): 128 µg/mL (≈ 509 µM)
MIC (S. aureus 8325-4; S. aureus 8325-4, Gram-positive, read-out: MIC): 128 µg/mL (≈ 509 µM)
MIC (E. coli): 128 µg/mL (≈ 509 µM)
MIC (MSSA LUU7; MSSA LUU7, Gram-positive, read-out: MIC): 128 µg/mL (≈ 509 µM)
MIC (MRSA USA300; MRSA USA300, Gram-positive, read-out: MIC): 128 µg/mL (≈ 509 µM)
NO inhibitory activity (in words) ([3]; LPS-induced, highest concentration 50 μg/mL): no significant NO inhibitory activity
MIC (S. aureus CART817; S. aureus CART817, Gram-positive, read-out: MIC): 128 µg/mL (≈ 509 µM)

CCCCCCCCCCCCCCCC(C)=O [Compound 4, 2-heptadecanone]
MIC (MRSA POB2; MRSA POB2, Gram-positive): Inactive
MIC (MRSA HBP10; MRSA HBP10, Gram-positive): Inactive
MIC (S. marcescent): Inactive

CCCCCCCCCCCCCCCC(=O)O [Compound 5, palmitic acid]
MIC (MRSA POB2; MRSA POB2, Gram-positive): Inactive
MIC (MRSA HBP10; MRSA HBP10, Gram-positive): Inactive
cytotoxic response against A549 cells (in words) [2]: inactive
MIC (S. marcescent): Inactive
FRAP ([1]; FeSO4 standard curve): 88.06 µM
FRAP ([1]; µM FeSO4/µg sample): 1.10 ± 0.02 µM/µg

CCCCCCCCCCCCCCCC(=O)OC [Compound 6, methyl palmitate]
MIC (MRSA POB2; MRSA POB2, Gram-positive): Inactive
MIC (MRSA HBP10; MRSA HBP10, Gram-positive): Inactive
MIC (S. marcescent): Inactive
FRAP ([1]; FeSO4 standard curve): 499.40 µM
FRAP ([1]; µM FeSO4/µg sample): 6.24 ± 0.07 µM/µg

CCCCCCCCC1CC1CCCCCCCC(=O)O (stereo not drawn) [Compound 7, dihydrosterculic acid]
MIC (MRSA POB2; MRSA POB2, Gram-positive): Inactive
MIC (MRSA HBP10; MRSA HBP10, Gram-positive): Inactive
MIC (S. marcescent): Inactive
FRAP ([1]; FeSO4 standard curve): 230.06 µM
FRAP ([1]; µM FeSO4/µg sample): 2.88 ± 0.03 µM/µg

CCCCCCCC/C=C/CCCCCCC(O)C(=O)OC (stereo not drawn) [Compound 8, methyl (9E)-2-hydroxy-9-octadecenoate]
MIC (MRSA POB2; MRSA POB2, Gram-positive): Inactive
MIC (MRSA HBP10; MRSA HBP10, Gram-positive): Inactive
MIC (S. marcescent): Inactive

CNC(C)C1CCC(N)C(OC2C(N)CC(N)C(OC3OCC(C)(O)C(NC)C3O)C2O)O1 (stereo not drawn) [Gentamicin, gentamicin, reference compound]
MIC (S. marcescent; [4]): 0.25 µg/mL (≈ 0.523 µM)
MIC (E. coli): 0.25 µg/mL (≈ 0.523 µM)

[H]/N=C(/NC)NCCC[C@H](N)C(=O)O [L-NMMA, L-N-Monomethyl Arginine citrate, reference compound]
IC50 ([3]; Mus musculus, RAW264.7, LPS 1 μg/mL, adjusted for cell viability, read-out: IC50, inhibition of LPS-induced NO production): 43.5 ± 1.8 µM

CN[C@H](CC(C)C)C(=O)N[C@H]1C(=O)N[C@@H](CC(N)=O)C(=O)N[C@H]2C(=O)N[C@H]3C(=O)N[C@H](C(=O)N[C@H](C(=O)O)c4cc(O)cc(O)c4-c4cc3ccc4O)[C@H](O)c3ccc(c(Cl)c3)Oc3cc2cc(c3O[C@@H]2O[C@H](CO)[C@@H](O)[C@H](O)[C@H]2O[C@H]2C[C@](C)(N)[C@H](O)[C@H](C)O2)Oc2ccc(cc2Cl)[C@H]1O [Vancomycin, vancomycin, reference compound]
MIC (MRSA POB2; Staphylococcus aureus, MRSA): 0.5 µg/mL (≈ 0.345 µM)
MIC (MRSA HBP10; Staphylococcus aureus, MRSA): 1 µg/mL (≈ 0.69 µM)
MIC (S. aureus NEWMAN; NEWMAN): 0.5 µg/mL (≈ 0.345 µM)
MIC (S. aureus ONE9; ONE9): 0.5 µg/mL (≈ 0.345 µM)
MIC (MSSA R113; MSSA): 0.5 µg/mL (≈ 0.345 µM)
MIC (S. aureus 8325-4): 0.5 µg/mL (≈ 0.345 µM)
MIC (MSSA LUU7; MSSA): 0.5 µg/mL (≈ 0.345 µM)
MIC (MRSA USA300): 0.5 µg/mL (≈ 0.345 µM)
MIC (S. aureus CART817; CART817): 1 µg/mL (≈ 0.69 µM)

N.N.[Cl][Pt][Cl] [cisplatin, Cisplatin, reference compound]
IC50 ([2]; read-out: IC50, cytotoxicity against A549 cells, 72 h exposure): 4.2 ± 0.3 µM
